Measurements published in PubChem BioAssay (NCI).
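Method: 48-hour compound exposure of cells in 96-well plates, five concentrations, linear interpolation of endpoints. TGI marks complete inhibition of growth.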

Key:
Test in all cases: growth of human tumour cells (NCI), 48 h
RXF-631 renal = tested on: RXF-631 renal
SF-268 CNS = tested on: SF-268 CNS
SK-MEL-5 melanoma = tested on: SK-MEL-5 melanoma
SF-295 CNS = tested on: SF-295 CNS
SK-MEL-2 melanoma = tested on: SK-MEL-2 melanoma
RXF 393 renal = tested on: RXF 393 renal
OVCAR-8 ovarian = tested on: OVCAR-8 ovarian
IGROV1 ovarian = tested on: IGROV1 ovarian
EKVX NSCLC = tested on: EKVX NSCLC
MOLT-4 leukemia = tested on: MOLT-4 leukemia
U251 CNS = tested on: U251 CNS
SNB-19 CNS = tested on: SNB-19 CNS
HOP-92 NSCLC = tested on: HOP-92 NSCLC
K-562 leukemia = tested on: K-562 leukemia
HL-60(TB) leukemia = tested on: HL-60(TB) leukemia
HCC-2998 colon = tested on: HCC-2998 colon
SN12C renal = tested on: SN12C renal
NCI-H522 lung = tested on: NCI-H522 lung
UACC-257 melanoma = tested on: UACC-257 melanoma
SK-OV-3 ovarian = tested on: SK-OV-3 ovarian
COLO 205 colon = tested on: COLO 205 colon
HCT-15 colon = tested on: HCT-15 colon
SF-539 CNS = tested on: SF-539 CNS
KM12 colon = tested on: KM12 colon
ACHN renal = tested on: ACHN renal
A549 NSCLC = tested on: A549 NSCLC
UACC-62 melanoma = tested on: UACC-62 melanoma
HOP-62 NSCLC = tested on: HOP-62 NSCLC
HOP-18 NSCLC = tested on: HOP-18 NSCLC
OVCAR-4 ovarian = tested on: OVCAR-4 ovarian
SK-MEL-28 melanoma = tested on: SK-MEL-28 melanoma
LXFL 529 NSCLC = tested on: LXFL 529 NSCLC
NCI-H226 lung = tested on: NCI-H226 lung
OVCAR-3 ovarian = tested on: OVCAR-3 ovarian
M14 melanoma = tested on: M14 melanoma
DMS 114 small cell lung = tested on: DMS 114 small cell lung
UO-31 renal = tested on: UO-31 renal
SNB-75 CNS = tested on: SNB-75 CNS
NCI-H460 lung = tested on: NCI-H460 lung
RPMI-8226 leukemia = tested on: RPMI-8226 leukemia
HT29 colon = tested on: HT29 colon
HCT-116 colon = tested on: HCT-116 colon
LOX IMVI melanoma = tested on: LOX IMVI melanoma
OVCAR-5 ovarian = tested on: OVCAR-5 ovarian
A498 renal = tested on: A498 renal
786-0 renal = tested on: 786-0 renal
NCI-H23 lung = tested on: NCI-H23 lung
TK-10 renal = tested on: TK-10 renal
SW-620 colon = tested on: SW-620 colon
M19-MEL melanoma = tested on: M19-MEL melanoma
SNB-78 CNS = tested on: SNB-78 CNS
CCRF-CEM leukemia = tested on: CCRF-CEM leukemia
KM20L2 colon = tested on: KM20L2 colon
SR leukemia = tested on: SR leukemia
DMS 273 small cell lung = tested on: DMS 273 small cell lung
MALME-3M melanoma = tested on: MALME-3M melanoma
CAKI-1 renal = tested on: CAKI-1 renal
DLD-1 colon = tested on: DLD-1 colon

Measured: TGI

O=C(CCC(=O)Nc1ccc(Cl)c(Cl)c1)Cc1nc2ccccc2o1
not listed: DLD-1 colon
> 100 µM: all other assays above

O=C(/C=C\c1ccccc1O)c1ccc(O)cc1O
22.7 µM: SW-620 colon
72.9 µM: COLO 205 colon
not listed: SNB-75 CNS
> 100 µM: all other assays above

CC(C)(C)C1=CC(=C(P(=O)(O)O)P(=O)(O)O)C=C(C(C)(C)C)C1=O
not listed: RXF 393 renal | U251 CNS | SN12C renal | COLO 205 colon | SR leukemia
> 50 µM: all other assays above

CN(CCS(=O)(=O)N1C(=O)C2CCCN2C(=O)[C@@H]1Cc1ccccc1)C(=O)OCc1ccccc1 (stereo partly drawn)
53.5 µM: MOLT-4 leukemia
45.4 µM: RPMI-8226 leukemia
95.7 µM: UACC-62 melanoma
73.4 µM: ACHN renal
27.4 µM: HL-60(TB) leukemia
not listed: SK-MEL-2 melanoma | DMS 273 small cell lung
> 100 µM: all other assays above
